Legend:
Plasmodium falciparum [1] = assay: Percent inhibition of Plasmodium falciparum FCM29 after 0.75 mg/kg subcutaneous dose; assay type: functional; conditions: sc
Plasmodium falciparum [2] = assay: Percent inhibition of Plasmodium falciparum FCM29 after 10 mg/kg oral dose; assay type: functional
Plasmodium falciparum [3] = assay: Percent parasitaemia after 10 mg/kg oral dose; assay type: functional, K1
Plasmodium falciparum [4] = assay: Percent parasitemia after 0.75 mg/kg dose; assay type: functional, K1
Plasmodium falciparum [5] = assay: Percent parasitemia after 5 mg/kg peroral dose; assay type: functional, organism-based; set-up: dose 5 mg/kg; conditions: K1, at 5 mg/kg
Plasmodium falciparum [6] = assay: Percent inhibition of Plasmodium falciparum FCM29 after 5 mg/kg oral dose; assay type: functional, organism-based; set-up: dose 5 mg/kg; conditions: K1, at 5 mg/kg

`CCN(CC)CCCC(C)Nc1ccnc2cc(Cl)ccc12` (stereo not drawn) [CHLOROQUINE] showed an inhibition in vivo at 0.75 mg/kg (Plasmodium falciparum [1]) of 17.2%, an inhibition in vivo at 10 mg/kg (Plasmodium falciparum [2]) of 99.8% and a Parasitemia (Plasmodium falciparum [3]) of 0.1%. It also gave a Parasitemia (Plasmodium falciparum [4]) of 32.2%.
“Ferrocenoyl-strychnobrasiline derivative” was tested, and the inhibition (Plasmodium falciparum [2]; at 10 mg/kg) was 1.3%, the Parasitemia (Plasmodium falciparum [3]; K1, at 10 mg/kg) was 38.4% and the Parasitemia (Plasmodium falciparum [5]) was 36.1%. For the same molecule, the inhibition (Plasmodium falciparum [6]) was 7.2%.
